Test [1] concerns the target T1, muscarinic receptors, SK-N-SH cell membranes (m4 AChR) (Homo sapiens, UniProt P20309).
T1 construct: membranes from SK-N-SH cells; endogenous in cells; host or cells: SK-N-SH human neuroblastoma cells (crude membrane fraction)
Nature of the test: Inhibition of [3H]-NMS binding to membranes from SK-N-SH cells. The conditions noted are these: SK-N-SH cells; conc. of compounds = 100 μM. An excerpt: (§1) Compounds of the present invention were screened for their biological activity. Assay systems using SK-N-SH human neuroblastoma cells which express only m4 -AChRs coupled to PI turnover, and NG108-15 neuroblastoma x glioma cells which express only m3 AChRs coupled to adenylate cyclase inhibition were used.
(§2) Compounds of the present invention were also screened for their relative binding affinities. Assay systems which measured the inhibition of ^3 H-N-methylscopolamine (^3 H-NMS) binding to membranes from NG108-15 cells and membranes from SK-N-SH cells were used.
(§3) Inhibition of [^3 H]-NMS binding
(§4) Cells were grown to confluence, harvested, and a crude membrane fraction was obtained. […] The total volume was 1 mL. The incubation was terminated by rapid filtration over GF/B filters using a Brandel cell harvester. The filters were washed three times with ice-cold 0.9% NaCl, equilibrated in scintillation counting fluid and counted on a Beckman LS 5801 liquid scintillation counter at 47% efficiency. Non-specific binding was determined by coincubation with 1 μM atropine, and amounted to less than 15% of total counts. It was routinely subtracted from the total counts.

Test [2] deals with T2, muscarinic receptors, NG108-15 cell membranes (m3 AChR) (Mus musculus, UniProt P32211).
T2 construct: membranes from NG108-15 cells; endogenous in cells; host or cells: NG108-15 neuroblastoma x glioma hybrid cells (crude membrane fraction)
T2 sequence (P32211 1-479): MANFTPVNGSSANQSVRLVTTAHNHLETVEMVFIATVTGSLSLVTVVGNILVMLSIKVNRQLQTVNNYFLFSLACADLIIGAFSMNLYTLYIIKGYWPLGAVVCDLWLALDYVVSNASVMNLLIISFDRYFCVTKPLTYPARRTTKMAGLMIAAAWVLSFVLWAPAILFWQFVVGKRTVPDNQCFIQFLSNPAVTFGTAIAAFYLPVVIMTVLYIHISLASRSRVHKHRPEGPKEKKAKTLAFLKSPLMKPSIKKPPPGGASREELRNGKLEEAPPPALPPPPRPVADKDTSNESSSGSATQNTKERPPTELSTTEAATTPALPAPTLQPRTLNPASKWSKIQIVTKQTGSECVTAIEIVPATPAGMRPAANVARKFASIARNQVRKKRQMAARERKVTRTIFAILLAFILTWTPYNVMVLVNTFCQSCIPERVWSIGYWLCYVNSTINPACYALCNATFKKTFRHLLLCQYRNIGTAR
The test is described as follows: Inhibition of [3H]-NMS binding to membranes from NG108-15 cells. Conditions: for inhibition at 100 µM: NG108-15 cells, conc. of compounds = 100 μM; for binding to muscarinic receptors, in words: 3H-NMS binding, NG108-15 and SK-N-SH membranes.
Description: as §1, §2, §3, §4

For test [3], the system named is NG108-15 neuroblastoma x glioma cells (m3 AChR). The test is described as follows: Inhibition of PGE1-stimulated cAMP levels in NG108-15 cells. It counts as cell-based. The conditions noted are these: for inhibition at 100 µM: relative to control with no compounds added, conc. of compounds = 100 μM, read-out: cAMP Inhib; for agonist activity, in words: Table I assays. Here is the method:
(§5) Compounds of the present invention were tested for their binding affinities and activation of second messengers in selective muscarinic cholinergic receptor systems. It is believed that m1 -, m4 -, and m5 AChRs couple exclusively to PI turnover, whereas m2 - and m3 -AChRs couple only to adenylate cyclase inhibition.
as §1
Inhibition of PGE1 -stimulated cAMP levels in NG108-15 cells
Cells were plated in 24-well plates and were grown to 90% confluence. The growth media was then replaced with a solution of 1 mM IBMX in DMEM-Hepes (0.5 mL per well) and the cells were incubated for 10 min at 37° C. Agonists were then added at a final concentration of 100 μM, along with PGE1 (final conc, 5 μM), and the cells were incubated for a further 15 min at 37° C. The reaction Was terminated by aspirating the solution and adding 0.5 mL of 0.1N HCl. In order to extract the cAMP from the cells, they were incubated in 0.1 N HCl for 30 min at room temperature. An aliquot (35 50 μL) was removed, lyophilized, and assayed for cAMP by radioimmunoassay.
For orientation: cAMP levels reflect the balance of adenylyl cyclase and phosphodiesterase activity.

Test [4] has as its system SK-N-SH human neuroblastoma cells (m4 AChR). Nature of the test: Stimulation of PI turnover in SK-N-SH cells. It counts as cell-based. Conditions: Homo sapiens, 0.5 h; SK-N-SH cells; percent relative to the activity of OXO-M; conc. of compounds = 100 μM; read-out: Pi turnover. Here is the method:
as §5, §1
Stimulation of PI turnover in SK-N-SH cells
Cells were plated into 24-well plates at 100,000 cells per well. After 24 hours, they were labeled overnight with 2 μCi per well of [^3 H]-myo-inositol (American Radiolabeled Chemicals, Inc., St. Louis, Mo.; 15 Ci/mM; 2 μL of stock per mL of media). The cells were then rinsed twice with 10 mM LiCl in DMEM-Hepes and the cells were incubated in this solution for 5 min at 37° C. The indicated compound was then added at a final concentration of 100 μM and the cells were incubated for another 30 min at 37° C. The reaction was stopped by aspirating the solution and adding cold methanol to the cells. After transferring the cells to a glass tube and sonicating briefly, chloroform and water were added to make a two-phase system. The upper aqueous phase was applied to 0.6 mL anion exchange columns (AG X8, Bio-Rad) and the columns were washed and total inositol phosphates were eluted with 1M ammonium formate and 0.1M formic acid.

Read-outs that look alike come from different tables or passages of the source.

T1 sequence (P20309 whole entry): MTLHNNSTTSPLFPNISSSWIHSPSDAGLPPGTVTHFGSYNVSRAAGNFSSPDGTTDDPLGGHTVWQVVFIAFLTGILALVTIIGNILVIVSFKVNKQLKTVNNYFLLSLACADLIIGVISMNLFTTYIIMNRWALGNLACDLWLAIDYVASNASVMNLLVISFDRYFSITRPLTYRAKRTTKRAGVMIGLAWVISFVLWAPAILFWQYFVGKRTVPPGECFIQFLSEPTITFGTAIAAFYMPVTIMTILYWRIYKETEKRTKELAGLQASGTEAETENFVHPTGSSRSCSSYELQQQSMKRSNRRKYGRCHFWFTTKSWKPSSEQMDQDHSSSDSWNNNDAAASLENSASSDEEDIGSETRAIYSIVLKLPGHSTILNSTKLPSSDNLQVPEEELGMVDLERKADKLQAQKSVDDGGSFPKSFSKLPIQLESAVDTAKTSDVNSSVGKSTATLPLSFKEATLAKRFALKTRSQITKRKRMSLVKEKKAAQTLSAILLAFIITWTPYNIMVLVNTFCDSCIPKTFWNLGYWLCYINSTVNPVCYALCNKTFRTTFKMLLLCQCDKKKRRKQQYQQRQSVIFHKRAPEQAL

With `CN(CC#CCN1CCCC1)C(=O)CCCCN` [Compound 036], the inhibition at 100 µM in test [1] was determined as 34.4 ± 0.3%; in test [2], 22.4 ± 3.2%; in test [3] (NG108-15, NG108-15 cells), 15.8 ± 2.7%. For the same compound, in test [3] (NG108-15 cells), the “agonist activity in NG108-15 cells (cAMP inhibition), in words” value is listed as “substantial activity”.
Regarding `CN(CC#CCN1CCCC1)C(=O)CCCNC(=O)CCNC(=O)OC(C)(C)C` [Compound 053], the inhibition at 100 µM in test [1] is 40%; in test [2], 23%; in test [3] (NG108-15 cells), 0%.
For `CC(=O)NCCCCC(=O)N(C)CC#CCN1CCCC1` [Compound 040], in that order: 29.4 ± 1%, 17.9 ± 7.9% and 5.2 ± 2.2%.
As for `CN(CC#CCN1CCCC1)C(=O)CCCCNC(=O)OC(C)(C)C` [Compound 035], the values for the inhibition at 100 µM in test [1], in test [2] and in test [3] (NG108-15 cells) were 32.1 ± 2.1%, 26.7 ± 1.6% and 0.5 ± 0.3%, respectively. In addition, the Emax at 100 µM in test [4] is 1 ± 1%.
With `CN(CC#CCN1CCCC1)C(=O)CCCNC(=O)OC(C)(C)C` [Compound 020], the inhibition at 100 µM in test [1] was found to be 32.1 ± 0.7%; in test [2], 24.4 ± 2.5%; in test [3] (NG108-15 cells), 3.5 ± 1.7%.
In the case of `CN(CC#CCN1CCCC1)C(=O)CNC(=O)OC(C)(C)C` [Compound 006, N-Methyl-N-[4-(1-pyrrolidinyl)-2-butynyl]-2-(N-Boc-amino) acetamide], the inhibition at 100 µM came out at 40 ± 2.1% in test [1], 32.6 ± 1.5% in test [2] and 7 ± 2.9% in test [3] (NG108-15 cells). For the same compound, in test [3] (NG108-15 cells), the “agonist activity in NG108-15 cells (cAMP inhibition), in words” value was “substantial activity”.
For the compound `CC(=O)NCC(=O)N(C)CC#CCN1CCCC1` [Compound 010, N-Methyl-N-[4-(1-pyrrolidinyl)-2-butynyl]-2-(N-acetylamino)acetamide], the inhibition at 100 µM stood at 12.5 ± 2.8% in test [1]; 24 ± 5.4% in test [2]; 14.1 ± 2.3% in test [3] (NG108-15, NG108-15 cells). Further, the “agonist activity in NG108-15 cells (cAMP inhibition), in words” value in test [3] (NG108-15 cells) is reported as “substantial activity”. Besides, the Emax at 100 µM in test [4] came out at 8 ± 3%.
With `CC(=O)NCCC(=O)N(C)CC#CCN1CCCC1` [Compound 018], the inhibition at 100 µM in test [1] was determined as 67.4 ± 3.3%; in test [2], 67.7 ± 3.6%; in test [3] (NG108-15, NG108-15 cells), 10.2 ± 4.8%.
On to `CC(=O)NCCCCCCC(=O)N(C)CC#CCN1CCCC1` [Compound 049], for which the inhibition at 100 µM in test [1] was determined as 24.6 ± 3.1%; in test [2], 20.4 ± 5.5%; in test [3] (NG108-15 cells), 6.9 ± 2.9%.
Turning to `CN(CC#CCN1CCCC1)C(=O)CCCCCCN` [Compound 047], the inhibition at 100 µM in test [1] came to 81.9 ± 1%; in test [2], 72.1 ± 2.7%; in test [3] (NG108-15, NG108-15 cells) it was 3 ± 1.2%. For the same compound, the “binding to muscarinic receptors, in words” value (“binding” below) in test [2] is “most active”. In addition, in test [3], the “agonist activity, in words” value was “inactive as agonists”.
Regarding `CN(CC#CCN1CCCC1)C(=O)CCCCCN` [Compound 039], the inhibition at 100 µM was 55.6 ± 1.9% in test [1]; 37.9 ± 3.2% in test [2]; 14.3 ± 1% in test [3] (NG108-15, NG108-15 cells). Also, in test [3] (NG108-15 cells), the “agonist activity in NG108-15 cells (cAMP inhibition), in words” value is listed as “substantial activity”.
For `CC(=O)NCCCCCCCC(=O)N(C)CC#CCN1CCCC1` [Compound 048], the inhibition at 100 µM turned out to be 59.1 ± 0.8% in test [1], 50.4 ± 4.9% in test [2] and 0% in test [3] (NG108-15 cells).
Consider `CN(CC#CCN1CCCC1)C(=O)CCCCCCCNC(=O)OC(C)(C)C` [Compound 043], for which the inhibition at 100 µM was found to be 92.1 ± 1% in test [1], 89 ± 2.5% in test [2] and 0% in test [3] (NG108-15 cells). Moreover, the “binding” value in test [2] is “most active”. In test [3], the “agonist activity, in words” value was “inactive as agonists”.
Take `CN(CC#CCN1CCCC1)C(=O)CCCNC(=O)CNC(=O)OC(C)(C)C` [Compound 052, N-Methyl-N-[4-(1-pyrrolidinyl)-2-butynyl]-5-(N-[2-(N-Boc-amino)ethanoyl]amino)butanamide]: the inhibition at 100 µM in test [1] turned out to be 40%; in test [2], 5%; in test [3] (NG108-15 cells), 0%.
Take `CN(CC#CCN1CCCC1)C(=O)CCCN` [Compound 021]: the inhibition at 100 µM was 20 ± 1.5% in test [1]; 12.1 ± 2.2% in test [2]; 3.7 ± 2% in test [3] (NG108-15, NG108-15 cells).
As to `CN(CC#CCN1CCCC1)C(=O)CCCNC(=O)c1ccccc1` [Compound 055], the values for the inhibition at 100 µM in test [1], in test [2] and in test [3] (NG108-15 cells) were 27%, 16% and 0%, respectively.
`CN(CC#CCN1CCCC1)C(=O)CCNC(=O)OC(C)(C)C` [Compound 016]: the inhibition at 100 µM in test [1] was 45.1 ± 2.5%; in test [2], 36.3 ± 3.1%; in test [3] (NG108-15 cells), 12.5 ± 2.7%. Also, in test [3] (NG108-15 cells), the “agonist activity in NG108-15 cells (cAMP inhibition), in words” value is given as “substantial activity”.
Consider `CN(CC#CCN1CCCC1)C(=O)CCCCCCCN` [Compound 046], for which the inhibition at 100 µM in test [1] came out at 93.7 ± 1.8%; in test [2] it was 92.3 ± 3.2%; in test [3] (NG108-15 cells), 0%. Besides, in test [2], the “binding” value is listed as “most active”. Besides, the “agonist activity, in words” value in test [3] was “inactive as agonists”.
For `CC(=O)NCCCCCC(=O)N(C)CC#CCN1CCCC1` [Compound 041], the inhibition at 100 µM in test [1] was 17.4 ± 3.6%; in test [2], 22.7 ± 2.8%; in test [3] (NG108-15 cells) it was 3 ± 1.7%. The Emax at 100 µM in test [4] is 1 ± 1%.
`CN(CC#CCN1CCCC1)C(=O)CCCCCNC(=O)CCNC(=O)OC(C)(C)C` [Compound 051]: the inhibition at 100 µM worked out at 60% in test [1], 51% in test [2] and 0% in test [3] (NG108-15 cells).
Regarding `CN(CC#CCN1CCCC1)C(=O)CCCCCCNC(=O)OC(C)(C)C` [Compound 045], the inhibition at 100 µM came to 81.4 ± 2.4% in test [1], 77.9 ± 2.4% in test [2] and 0% in test [3] (NG108-15 cells). Besides, in test [2], the “binding” value is recorded as “most active”. Besides, in test [3], the “agonist activity, in words” value was “inactive as agonists”.
Consider `CN(CC#CCN1CCCC1)C(=O)CCCCCNC(=O)CNC(=O)OC(C)(C)C` [Compound 050], for which the inhibition at 100 µM in test [1] came to 50%; in test [2], 51%; in test [3] (NG108-15 cells), 0%.
For `CN(CC#CCN1CCCC1)C(=O)CCCCCNC(=O)c1ccccc1` [Compound 054], in that order: 49%, 35% and 0%.
In the case of `CN(CC#CCN1CCCC1)C(=O)CCCCCNC(=O)OC(C)(C)C` [Compound 038], the inhibition at 100 µM in test [1] turned out to be 39.1 ± 2.4%; in test [2], 31.9 ± 0.9%; in test [3] (NG108-15 cells), 0%.

The record behind these values is patent publication US5274121A, “N-methyl-N-[4-(1-pyrrolidinyl)-2-butynyl]amide congeners as muscarinic agents” (priority 1992, dated 1993).
